In patent US20050191267A1, “Anti-photoaging cosmeceutical composition” (priority 2004, published 2005):

System: inflamed ears of experimental mice
Experiment: Anti-inflammatory activity on ethyl phenyl propyolate-inflamed mice ears
Assay type: in vivo
Procedure: The test for anti-inflammatory activity can be done on lab mice by applying ethyl phenyl propyolate on mice ears at a concentration of 1 mg per ear to induce inflammation. The fullest swollen ear can be observed 1 hour after the application, then the tested extracts and reference compound, dexamethasone, are applied onto the inflamed ears at a dose of 0.05 mg/ear. The reduction in the thickness of the ears in comparison with the control group indicates anti-inflammatory activity, as shown in Table 1.

`C[C@@H]1C[C@H]2[C@@H]3CCC4=CC(=O)C=C[C@]4(C)[C@@]3(F)[C@@H](O)C[C@]2(C)[C@@]1(O)C(=O)CO` [Anti-inflammatory, Dexamethasone] was tested, and the “Percentage reduction of inflamed ears” value (0 min, ethyl phenyl propyolate 1 mg per ear) was 0%, the “Percentage reduction of inflamed ears” value (60 min after inducer (fullest swelling, time of application), 0.05 mg/ear) was 54.253% and the “Percentage reduction of inflamed ears” value (90 min, 0.05 mg/ear topical) was 42.533%. The “Percentage reduction of inflamed ears” value (120 min, 0.05 mg/ear topical) was 38.752%, the “Percentage reduction of inflamed ears” value (240 min, 0.05 mg/ear topical) was 25.142% and the “Percentage reduction of inflamed ears” value (360 min, 0.05 mg/ear topical) was 13.422%. The “Percentage reduction of inflamed ears” value (480 min, 0.05 mg/ear topical) was 11.531%.
